Source: US20030105014A1, “Screening assay for the identification of inhibitors of macrophage migration inhibitory factor” (priority 1996, published 2003)

How the values were obtained:
MIF = molecular target: T1, MIF (Homo sapiens, UniProt P14174); test: MIF dopachrome tautomerase activity assay with Compound 1b as MIF-substrate; type: biochemical; conditions: test compound used in place of the MIF-substrate
T1 construct: made in house; host or cells: E. coli BL21(DE3), pET11b (inferred from Section 6; the Section 8 text says only 'recombinant')
T1 sequence (P14174 2-115 limits assumed): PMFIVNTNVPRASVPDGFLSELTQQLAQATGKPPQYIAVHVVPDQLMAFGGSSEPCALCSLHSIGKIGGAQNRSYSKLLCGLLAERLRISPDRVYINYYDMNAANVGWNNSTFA
Excerpt: The general method of performing an assay for MIF dopachrome tautomerase activity, described in more detail below, begins with the oxidation of a percursor of the MIF-substrate (e.g., DOPA-related Compound 1a [L-3-(3,4-dihydroxyphenyl) alanine methyl ester] above) and, if required, the similar oxidation of precursors of the test inhibitors (e.g., the DOPA-related Compounds 2a [L-3-(3,4-dihydroxyphenyl)-2-methyl alanine], 3a [D/L-3-(3,4-dihydroxyphenyl)-2-methyl alanine], 4a [L-3-(3,4-dihydroxyphenyl)-2-methyl alanine methyl ester] and 5a [D/L-3-(3,4-dihydroxyphenyl)-2 methyl alanine methyl ester] above). This oxidation of each precursor compound with sodium periodate generates the corresponding orange-colored dopachrome derivative; specifically, a preferred MIF-substrate (Compound 1B above) and the test inhibitors (Compounds 2b, 3b, 4b, and 5b above). Upon addition of MIF, the MIF-substrate (Compound 1b [L-3,5-dihydro-6-hydroxy-5-oxo-2H-indole-2-carboxylic acid methyl ester]) undergoes tautomerization resulting in a colorless product. In the presence of the test inhibitors (Compounds 2b, 3b, 4b, and 5b), decolorization of MIF-substrate (Compound 1b) was retarded. Test compounds 2b, 3b, 4b, and 5b themselves were unreactive in this tautomerization reaction; that is, they were not tautomerized and correspondingly decolorized by MIF dopachrome tautomerase activity if they were substituted for the MIF-substrate in this assay method.
In a preferred MIF dopachrome tautomerase activity assay procedure, the DOPA-related precursors (Compounds 1a, 2a, 3a, 4a, and 5a above) are prepared as 10 mM stock solutions in Assay Buffer (10 mM sodium phosphate, pH 6.0). About 10 minutes before the tautomerization assay, 1.0 ml of each stock solution was diluted with 8 ml of Assay Buffer, and 1.0 ml of sodium periodate stock solution (20 mM in water) was added to initiate the oxidation of the diluted precursors, thus generating each respective dopachrome derivative (i.e., Compounds 1b, 2b, 3b, 4b, and 5b) at a final concentration of 1 mM. To perform the actual tautomerization assay, 0.5 ml of the 1 mM solution of the MIF-substrate (i.e., Compound 1b) was mixed with 0.5 ml of Assay Buffer (no inhibitor control reaction) or 0.5 ml of the 1 mM dilution of the test inhibitor (e.g., Compounds 2b, 3b, 4b, or 5b), followed by addition of 10 μl of recombinant […] solution from a 20 μg/ml stock.

recombinant human MIF = recombinant human MIF (Homo sapiens, UniProt P14174); test: biochemical; conditions: read-out: % Inhibition of MIF tautomerase activity
RAW 264.7 macrophages [1] = test: MIF-induced secretion of TNFα by mouse macrophages (L929 cell cytotoxicity readout); type: cell-based, murine
Protocol: TNFα production was quantitated in MIF-conditioned RAW 264.7 macrophage supernatants by L929 cell cytotoxicity as described previously (Wolpe et al., 1988, J. Exp. Med. 167: 570). RAW 264.7 macrophages were resuspended in RPMI/10% FBS, plated at 1×10^6 cells/ml, incubated for 3 hours at 37° C. in a humidified atmosphere with 5% CO2, and washed twice with RPMI/1% FBS. Cells were incubated for 12-14 hours with various doses of MIF diluted in RPMI/1% FBS. At the end of each experiment, cell culture media were collected, centrifuged (10 min at 800 g), and supplemented with 1 mM PMSF. MIF-induced TNFα activity was measured immediately afterwards.

[2] = Tautomerase activity of altered or glycated MIF proteins; type: biochemical
Protocol: A 1 mM solution of L-DOPA methyl ester was prepared in Reaction Buffer (10 mM sodium phosphate, pH 6, containing 0.5 mM EDTA). L-DOPA methyl ester was oxidized to colored L-dipachrome methyl ester by adding 10% (v/v) of a 20 mM aqueous solution of potassium periodate, following a 1:2 dilution with Reaction Buffer.
The test compound, reduced glutathione, was added in concentrations of 0.1 mM, 0.5 mM, 1.0 mM, and 2.0 mM to separate cuvettes containing the substrate solution. Approximately 100 ng of purified recombinant human MIF was added to each cuvette. […]
Purified recombinantly-produced human MIF protein was glycated by incubation in aqueous buffer in the presence of 0.5 M glucose, typically for 6 weeks in the dark at 37° C. under a nitrogen atmosphere to ensure complete glycation of susceptible residues (although other spontaneous glycation conditions will serve to glycate the protein without departing from the essence of the invention) and tested for D-dopachrome tautomerase activity by the method of Section 7 or Section 8. […] The AGE-MIF was recovered and analyzed by matrix-assisted laser desorption ionization mass spectroscopy and determined to have a mass consistent with three-fold Amadori product modification of the protein; that is, there was a mass excess of approximately 3×162 (the mass excess of a single Amadori product). […]

RAW 264.7 macrophages [3] = test: MIF-induced nitric oxide production in macrophages (Griess reagent); type: cell-based, murine; conditions: 1 μg/ml, IFN-γ-primed RAW 264.7 macrophages
Protocol: Nitric oxide (NO) production was quantitated in MIF-conditioned RAW 264.7 and thioglycollate-elicited peritoneal exudate macrophage supernatants by measuring nitrite and nitrate content with the Griess reagent. RAW 264.7 macrophages were prepared and conditioned as described above. In some experiments, cells were incubated for 1 h with recombinant murine interferon-γ (IFN-γ) (100 IU/ml) (Boehringer-Mannheim, Indianapolis, Ind.) prior to the addition of MIF. Thioglycollate-elicited peritoneal exudate macrophages were obtained from BALB/c mice that were injected intra-peritoneally 3-4 days previously with 2 ml of sterile thioglycollate broth. Cells were harvested under strict aseptic conditions by lavage of the peritoneal cavity with 5 ml of an ice-chilled 11.6% sucrose solution. After centrifugation (10 min at 800 g), cells were resuspended in RPMI/10% FBS and plated at a density of 2×10^6 cells/ml. After 3 h of incubation, non-adherent cells (i.e. PMNs, lymphocytes) were removed with RPMI/1% FBS and the remaining adherent cells conditioned with MIF as described for RAW 264.7 cells. Trace concentrations of contaminating LPS were neutralized by incubating MIF (1 and 10 μg/ml in cell culture media) with polymyxin B at a concentration of 10 and 100 ng/ml, respectively, for 30 min at room temperature under sterile conditions. […]

CC1(C(=O)O)CC2=CC(=O)C(O)=CC2=N1 [Compound 3b, D/L-3,5-dihydro-6-hydroxy-2-methyl-5-oxo-2H-indole-2-carboxylic acid]
Tautomerization by MIF when substituted for the MIF-substrate (MIF): unreactive

N[C@@H](CCC(=O)N[C@@H](CS)C(=O)NCC(=O)O)C(=O)O [Glutathione, glutathione]
inhibition at 100 µM (recombinant human MIF): 14%
inhibition at 500 µM (recombinant human MIF): 69%
inhibition at 1000 µM (recombinant human MIF): 95%
inhibition at 2000 µM (recombinant human MIF): 100%

COC(=O)C1(C)CC2=CC(=O)C(O)=CC2=N1 [Compound 5b, D/L-3,5-dihydro-6-hydroxy-2-methyl-5-oxo-2H-indole-2-carboxylic acid methyl ester]
Tautomerization by MIF when substituted for the MIF-substrate (MIF): unreactive

CC1(C(=O)O)CC2=CC(=O)C(O)=CC2=N1 [Compound 2b, L-3,5-dihydro-6-hydroxy-2-methyl-5-oxo-2H-indole-2-carboxylic acid]
Tautomerization by MIF when substituted for the MIF-substrate (MIF): unreactive

COC(=O)C1(C)CC2=CC(=O)C(O)=CC2=N1 [Compound 4b, L-3,5-dihydro-6-hydroxy-2-methyl-5-oxo-2H-indole-2-carboxylic acid methyl ester]
Tautomerization by MIF when substituted for the MIF-substrate (MIF): unreactive

B1: rhuMIF: recombinant human MIF expressed in E. coli from pET11b, native amino-terminus (protein, UniProt P14174 2-115, looked up)
Macrophage migration …: PMFIVNTNVPRASVPDGFLSELTQQLAQATGKPPQYIAVHVVPDQLMAFGGSSEPCALCSLHSIGKIGGAQNRSYSKLLCGLLAERLRISPDRVYINYYDMNAANVGWNNSTFA
Secretion of TNFα induced by MIF (RAW 264.7 macrophages [1]; MIF 0.1 μg/ml): 2.9 ± 2.4 ng/mL
Secretion of TNFα induced by MIF (RAW 264.7 macrophages [1]; MIF 1 μg/ml): 3.4 ± 2.8 ng/mL
Secretion of TNFα induced by MIF (RAW 264.7 macrophages [1]; MIF 10 μg/ml): 3.9 ± 2.8 ng/mL
MIF tautomerase activity of expressed protein ([2]; protein expressed in E. coli): highly active
NO production activity relative to rmuMIF (RAW 264.7 macrophages [3]): approximately 4 fold

B2: AGE-MIF: recombinant human MIF glycated by incubation with 0.5 M glucose; three-fold Amadori product modification (protein, UniProt P14174 2-115, looked up)
Macrophage migration …: PMFIVNTNVPRASVPDGFLSELTQQLAQATGKPPQYIAVHVVPDQLMAFGGSSEPCALCSLHSIGKIGGAQNRSYSKLLCGLLAERLRISPDRVYINYYDMNAANVGWNNSTFA
modifications: advanced glycation end-product modified
D-dopachrome tautomerase activity of glycated MIF ([2]; human MIF incubated with 0.5 M glucose, typically 6 weeks at 37° C., method of Section 7 or Section 8): no D-dopachrome tautomerase activity
